39 compounds from ChEMBL document CHEMBL3039007, “Structure-based identification of OATP1B1/3 inhibitors” (Mol Pharmacol, 2013) can be followed below.

Series [1] addresses T1, Solute carrier organic anion transporter family member 1B3 (Homo sapiens, UniProt Q9NPD5).
T1 sequence (Q9NPD5 whole entry): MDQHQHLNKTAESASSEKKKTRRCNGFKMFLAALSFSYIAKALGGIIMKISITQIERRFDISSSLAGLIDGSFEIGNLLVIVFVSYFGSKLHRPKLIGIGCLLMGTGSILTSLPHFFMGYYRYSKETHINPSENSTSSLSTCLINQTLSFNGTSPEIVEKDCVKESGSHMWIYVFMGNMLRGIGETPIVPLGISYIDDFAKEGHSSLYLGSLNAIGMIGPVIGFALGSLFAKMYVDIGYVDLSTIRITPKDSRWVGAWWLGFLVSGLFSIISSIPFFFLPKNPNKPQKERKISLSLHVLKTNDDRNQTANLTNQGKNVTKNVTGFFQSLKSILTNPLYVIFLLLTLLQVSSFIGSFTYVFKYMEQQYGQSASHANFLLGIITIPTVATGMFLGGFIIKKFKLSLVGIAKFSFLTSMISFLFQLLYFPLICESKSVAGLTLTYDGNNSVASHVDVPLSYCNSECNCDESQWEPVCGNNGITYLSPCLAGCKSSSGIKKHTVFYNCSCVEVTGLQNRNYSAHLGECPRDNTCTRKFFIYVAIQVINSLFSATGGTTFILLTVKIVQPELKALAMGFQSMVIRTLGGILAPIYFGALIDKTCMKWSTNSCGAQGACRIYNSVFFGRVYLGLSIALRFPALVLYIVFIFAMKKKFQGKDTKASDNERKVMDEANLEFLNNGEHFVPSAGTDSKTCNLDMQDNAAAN
Conditions: chinese hamster, cho, 10 µM.

The target of series [2] is T2, Solute carrier organic anion transporter family member 1B1 (Homo sapiens, UniProt Q9Y6L6).
T2 sequence (Q9Y6L6 whole entry): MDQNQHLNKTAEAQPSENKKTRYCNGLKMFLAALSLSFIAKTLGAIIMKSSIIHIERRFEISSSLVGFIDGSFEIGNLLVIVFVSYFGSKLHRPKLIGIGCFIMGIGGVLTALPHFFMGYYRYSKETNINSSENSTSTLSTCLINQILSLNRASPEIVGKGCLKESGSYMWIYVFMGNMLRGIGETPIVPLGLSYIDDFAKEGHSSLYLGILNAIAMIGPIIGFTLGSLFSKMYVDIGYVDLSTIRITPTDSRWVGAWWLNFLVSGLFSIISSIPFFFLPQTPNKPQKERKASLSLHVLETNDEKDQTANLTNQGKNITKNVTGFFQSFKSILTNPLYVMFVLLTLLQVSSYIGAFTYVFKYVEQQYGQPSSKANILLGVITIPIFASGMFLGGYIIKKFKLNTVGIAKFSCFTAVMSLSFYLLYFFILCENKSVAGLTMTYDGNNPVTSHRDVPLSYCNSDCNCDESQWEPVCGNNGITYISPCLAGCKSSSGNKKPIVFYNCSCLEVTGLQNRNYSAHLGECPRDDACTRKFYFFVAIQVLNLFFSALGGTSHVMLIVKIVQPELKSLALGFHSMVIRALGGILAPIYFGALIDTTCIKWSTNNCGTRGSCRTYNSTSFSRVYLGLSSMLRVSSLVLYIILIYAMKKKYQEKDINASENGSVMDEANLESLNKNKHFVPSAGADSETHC
The note with it: chinese hamster, cho, 10 µM.

Starred links: 1 amine or outer side, 2 acyl side, 3 side chain; linkers in the order of their positions; H or OH if unused. Positions of bridges follow the written chain, without caps; N, C: chain ends. Non-standard residues stand in square brackets, D forms with d. Residues, ends and D or L forms follow the SMILES beside them. ξ: configuration not given here. *: point of attachment. X1 = N=C1NCCC([C@H](N[*:1])C(=O)[*:2])N1; ΔAla(Z-3-ureido) = NC(=O)N/C=C(\N)C(=O)O; ξβ3hOrn = NCCCC(N)CC(=O)*; Dap = NC[C@H](N)C(=O)O

Regarding `CCCC1O[C@@H]2C[C@H]3[C@@H]4CCC5=CC(=O)C=C[C@]5(C)[C@H]4[C@@H](O)C[C@]3(C)[C@]2(C(=O)CO)O1` (stereo partly drawn) [BUDESONIDE], the residual activity in series [1] was 73%; in series [2], 43.76%.

With `CCCCOc1ccc(CC(=O)NO)cc1` [BUFEXAMAC], the residual activity in series [1] was 92.18%; in series [2], 89.04%.

As to `CCCCN1CCCCC1C(=O)Nc1c(C)cccc1C.Cl` (stereo not drawn) [BUPIVACAINE HYDROCHLORIDE], the residual activity in series [1] is 94.2%; in series [2], 97.15%.

Regarding `CS(=O)(=O)OCCCCOS(C)(=O)=O` [BUSULFAN], the figures for the residual activity in series [1] and in series [2] were 98.16% and 113.7%, respectively.

`CCCCN(CCCC)CCCOC(=O)c1ccc(N)cc1` [BUTACAINE]: the residual activity was 114.4% in series [1] and 93.87% in series [2].

For the compound `CCCCOC(=O)c1ccc(N)cc1` [BUTAMBEN], the residual activity amounted to 124.9% in series [1] and 159.2% in series [2].

For the compound `CCC[C@H]1CC2=C(C[C@@H](CC)CC3=C1C(=O)OC3=O)C(=O)OC2=O` [BYSSOCHLAMIC ACID], the residual activity is 102.5% in series [1] and 87.32% in series [2].

In the case of `CC(=O)OC[C@@]1(O)C[C@@]23CC[C@@H]4c5ccoc5CC[C@@]4(C)[C@@H]2CC[C@@H]1C3` [CAFESTOL ACETATE], the values for the residual activity in series [1] and in series [2] were 89.68% and 108.6%, respectively.

In the case of `O=C(/C=C/c1ccc(O)c(O)c1)OCCc1ccccc1` [CAFFEIC ACID PHENETHYL ESTER], the results for the residual activity in series [1] and in series [2] were 143.5% and 254%, respectively.

Consider `O=C(O)/C=C/c1ccc(O)c(O)c1` [CAFFEIC ACID], for which the residual activity is recorded as 94% in series [1] and 69.6% in series [2].

For the compound `Cn1c(=O)c2c(ncn2C)n(C)c1=O` [CAFFEINE], the residual activity turned out to be 90.35% in series [1] and 103.6% in series [2].

On to `CC[C@@]1(O)C(=O)OCc2c1cc1n(c2=O)Cc2cc3ccccc3nc2-1` [CAMPTOTHECIN], for which the residual activity in series [1] is listed as 107.3%; in series [2] it was 74.81%.

With `N=C(N)NOCC[C@H](N)C(=O)O` [CANAVANINE], the results for the residual activity in series [1] and in series [2] were 91.69% and 101.6%, respectively.

`CCOc1nc2cccc(C(=O)OC(C)OC(=O)OC3CCCCC3)c2n1Cc1ccc(-c2ccccc2-c2nnn[nH]2)cc1` (stereo not drawn) [CANDESARTAN CILEXETIL]: the residual activity is 5.967% in series [1] and 10.55% in series [2].

`C[C@]12CCC(=O)C=C1C=C[C@@H]1[C@@H]2CC[C@@]2(C)[C@H]1CC[C@@]21CCC(=O)O1` [CANRENONE]: the residual activity in series [1] was 78.65%; in series [2], 32.01%.

`C[C@@]12C(=O)OC(=O)[C@]1(C)[C@H]1CC[C@@H]2O1` [CANTHARIDIN]: the residual activity in series [1] is listed as 105.7%; in series [2], 102.5%.

Regarding `C[C@@H]1NC(=O)[C@@H](N)CNC(=O)[C@H](C2CCNC(=N)N2)NC(=O)/C(=C/NC(N)=O)NC(=O)[C@H](CNC(=O)CC(N)CCCN)NC1=O.N=C1NCCC([C@@H]2NC(=O)/C(=C/NC(N)=O)NC(=O)[C@H](CNC(=O)CC(N)CCCN)NC(=O)[C@H](CO)NC(=O)[C@@H](N)CNC2=O)N1.O=S(=O)(O)O.O=S(=O)(O)O` (stereo partly drawn) [CAPREOMYCIN SULFATE] (H-[Dap]S[Dap](ξβ3hOrn)[ΔAla(Z-3-ureido)][X1]; lactam 1-C), the values for the residual activity in series [1] and in series [2] were 80.84% and 89.76%, respectively.

With `CC1=C(/C=C/C(C)=C/C=C/C(C)=C/C=C/C=C(C)/C=C/C=C(C)/C=C/C(=O)[C@]2(C)C[C@@H](O)CC2(C)C)C(C)(C)C[C@H](O)C1` [CAPSANTHIN], the residual activity in series [1] worked out at 102.1%; in series [2] it was 79.45%.

As to `C[C@H](CS)C(=O)N1CCC[C@H]1C(=O)O` [CAPTOPRIL], the residual activity came out at 105.2% in series [1] and 167% in series [2].

In the case of `COC(=O)C[C@H]1C(C)(C)C(=O)[C@@H]2CC3C4=CC(=O)O[C@@H](c5ccoc5)[C@]4(C)CC[C@@H]3[C@@]1(C)C2=O` (stereo partly drawn) [CARAPIN], the results for the residual activity in series [1] and in series [2] were 66.49% and 20.92%, respectively.

Regarding `C[N+](C)(C)CCOC(N)=O.[Cl-]` [CARBACHOL], the residual activity turned out to be 105.7% in series [1] and 120.9% in series [2].

For `COC(=O)N/N=C/c1c[n+]([O-])c2ccccc2[n+]1[O-]` [CARBADOX], the residual activity in series [1] came out at 107.6%; in series [2] it was 84.43%.

For `NC(=O)N1c2ccccc2C=Cc2ccccc21` [CARBAMAZEPINE], the residual activity was determined as 99.43% in series [1] and 121.6% in series [2].

Consider `CC1(C)S[C@@H]2[C@H](NC(=O)C(C(=O)[O-])c3ccccc3)C(=O)N2[C@H]1C(=O)[O-].[Na+].[Na+]` (stereo partly drawn) [CARBENICILLIN DISODIUM], for which the residual activity in series [1] is 100.7%; in series [2], 108.5%.

For the compound `CC1(C)[C@@H](OC(=O)CCC(=O)[O-])CC[C@]2(C)[C@H]3C(=O)C=C4[C@@H]5C[C@@](C)(C(=O)[O-])CC[C@]5(C)CC[C@@]4(C)[C@]3(C)CC[C@@H]12.[Na+].[Na+]` [CARBENOXOLONE SODIUM], the residual activity in series [1] is recorded as 14.47%; in series [2], 15.44%.

In the case of `CCN(CC)CCOCCOC(=O)C1(c2ccccc2)CCCC1.O=C(O)CC(O)(CC(=O)O)C(=O)O` [CARBETAPENTANE CITRATE], the residual activity was 97.23% in series [1] and 86.24% in series [2].

Regarding `C[C@@](Cc1ccc(O)c(O)c1)(NN)C(=O)O.O` [CARBIDOPA], the residual activity is given as 113.1% in series [1] and 134.5% in series [2].

Regarding `CCOC(=O)n1ccn(C)c1=S` [CARBIMAZOLE], the residual activity in series [1] was found to be 101.8%; in series [2], 114.4%.

Turning to `CN(C)CCOC(c1ccc(Cl)cc1)c1ccccn1.O=C(O)/C=C\C(=O)O` (stereo not drawn) [CARBINOXAMINE MALEATE], the values for the residual activity in series [1] and in series [2] were 96.23% and 85.11%, respectively.

As for `CNC(=O)Oc1cccc2c1OC(C)(C)C2` [CARBOFURAN], the residual activity in series [1] is listed as 111.1%; in series [2] it was 100.9%.

For the compound `CCCC(C)(COC(N)=O)COC(=O)NC(C)C` (stereo not drawn) [CARISOPRODOL], the residual activity in series [1] is 103.8%; in series [2] it was 106%.

Take `Cc1c(C(=O)O)c(O)cc2c1C(=O)c1c(O)c([C@@H]3O[C@H](CO)[C@@H](O)[C@H](O)[C@H]3O)c(O)c(O)c1C2=O` [CARMINIC ACID]: the results for the residual activity in series [1] and in series [2] were 121.9% and 21.61%, respectively.

For `CCCCCCNC(=O)n1cc(F)c(=O)[nH]c1=O` [CARMOFUR], the residual activity is given as 98.17% in series [1] and 107% in series [2].

`NCCC(=O)N[C@@H](Cc1cnc[nH]1)C(=O)O` [CARNOSINE]: the values for the residual activity in series [1] and in series [2] were 98.86% and 26.44%, respectively.

On to `CC(C(=O)O)c1ccc2c(c1)[nH]c1ccc(Cl)cc12` (stereo not drawn) [CARPROFEN], for which the figures for the residual activity in series [1] and in series [2] were 77.78% and 47.72%, respectively.

Take `CC(=O)Oc1cc(OC(C)=O)c2c(c1)O[C@H](c1ccc(OC(C)=O)c(OC(C)=O)c1)[C@@H](OC(C)=O)C2` [CATECHIN PENTAACETATE]: the values for the residual activity in series [1] and in series [2] were 104.9% and 82.47%, respectively.

As to `O=C(Oc1cc(OC(=O)c2ccccc2)c2c(c1)O[C@H](c1ccc(OC(=O)c3ccccc3)c(OC(=O)c3ccccc3)c1)[C@@H](OC(=O)c1ccccc1)C2)c1ccccc1` [CATECHIN PENTABENZOATE], the residual activity in series [1] is recorded as 118.6%; in series [2] it was 113.2%.

For `COc1cc(O)c(C(=O)c2ccccc2)cc1O` [CEAROIN], the residual activity in series [1] is listed as 120.9%; in series [2], 91.48%.

As to `CC1(C)C(=O)C=C[C@@]2(C)C1=C(O)C(=O)[C@]1(C)[C@@H]2CC[C@@]2(C)[C@H](c3ccoc3)C[C@H]3O[C@]321` [CEDRELONE], the residual activity in series [1] was 60.66%; in series [2], 44.73%.
